Measurements taken from patent US20100099676A1 (SHIONOGI & CO., LTD., priority 2006, published 2010).

How the values were obtained:
Test in all cases: Enzyme inhibiting activity of MMPs, fluorogenic peptide substrate
Type in all cases: biochemical
MMP-2 = molecular target: T1, MMP-2 (Homo sapiens, UniProt P08253); conditions: substrate MOCAc-Pro-Leu-Gly-Leu-A2Pr(DNP)-Ala-Arg-NH2, fluorescent intensity
T1 construct: purchased Calbiochem (EMD/MERCK Biosciences)
T1 sequence (P08253 110-660): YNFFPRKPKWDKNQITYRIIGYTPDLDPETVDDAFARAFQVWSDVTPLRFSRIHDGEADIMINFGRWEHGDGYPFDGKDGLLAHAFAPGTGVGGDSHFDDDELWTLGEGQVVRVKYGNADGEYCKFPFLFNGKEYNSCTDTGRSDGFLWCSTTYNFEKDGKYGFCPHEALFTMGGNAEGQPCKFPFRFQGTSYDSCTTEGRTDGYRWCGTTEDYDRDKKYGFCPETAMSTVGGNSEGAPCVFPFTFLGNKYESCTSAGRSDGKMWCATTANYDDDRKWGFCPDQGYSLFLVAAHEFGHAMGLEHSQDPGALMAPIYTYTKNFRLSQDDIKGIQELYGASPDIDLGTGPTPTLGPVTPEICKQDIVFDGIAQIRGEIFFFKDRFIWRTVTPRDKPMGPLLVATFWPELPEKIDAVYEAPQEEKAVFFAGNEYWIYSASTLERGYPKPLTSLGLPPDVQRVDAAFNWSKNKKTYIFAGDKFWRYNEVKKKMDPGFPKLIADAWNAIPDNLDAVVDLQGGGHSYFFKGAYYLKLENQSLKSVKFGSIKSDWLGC
In short: (§1)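 Recombinant human enzymes with the fluorogenic substrate MOCAc-Pro-Leu-Gly-Leu-A2Pr(DNP)-Ala-Arg-NH2. Fluorescence was read for enzyme+substrate±inhibitor and substrate±inhibitor blanks.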

MMP-9 = molecular target: T2, MMP-9 (Homo sapiens, UniProt P14780); conditions: substrate MOCAc-Pro-Leu-Gly-Leu-A2Pr(DNP)-Ala-Arg-NH2, fluorescent intensity
T2 construct: purchased Calbiochem (EMD/MERCK Biosciences)
In short: as §1

MMP-13 = molecular target: T3, MMP-13 (Homo sapiens, UniProt P45452); conditions: APMA-activated proenzyme; substrate MOCAc-Pro-Leu-Gly-Leu-A2Pr(DNP)-Ala-Arg-NH2, fluorescent intensity; read-out: IC50 MMP-13
T3 construct: purchased Calbiochem (EMD/MERCK Biosciences)
In short: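 Pro-MMP-13 was activated with 1 mM APMA at 37° C for 2 h in 50 mM Tris-HCl pH 7.6, 0.3 M NaCl, 10 mM CaCl2, 0.005% Brij35. Activity was read by fluorescence using MOCAc-Pro-Leu-Gly-Leu-A2Pr(DNP)-Ala-Arg-NH2 substrate, with enzyme and inhibitor blank corrections. IC50 is the concentration giving 50% inhibition.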

T2 sequence (P14780 94-707): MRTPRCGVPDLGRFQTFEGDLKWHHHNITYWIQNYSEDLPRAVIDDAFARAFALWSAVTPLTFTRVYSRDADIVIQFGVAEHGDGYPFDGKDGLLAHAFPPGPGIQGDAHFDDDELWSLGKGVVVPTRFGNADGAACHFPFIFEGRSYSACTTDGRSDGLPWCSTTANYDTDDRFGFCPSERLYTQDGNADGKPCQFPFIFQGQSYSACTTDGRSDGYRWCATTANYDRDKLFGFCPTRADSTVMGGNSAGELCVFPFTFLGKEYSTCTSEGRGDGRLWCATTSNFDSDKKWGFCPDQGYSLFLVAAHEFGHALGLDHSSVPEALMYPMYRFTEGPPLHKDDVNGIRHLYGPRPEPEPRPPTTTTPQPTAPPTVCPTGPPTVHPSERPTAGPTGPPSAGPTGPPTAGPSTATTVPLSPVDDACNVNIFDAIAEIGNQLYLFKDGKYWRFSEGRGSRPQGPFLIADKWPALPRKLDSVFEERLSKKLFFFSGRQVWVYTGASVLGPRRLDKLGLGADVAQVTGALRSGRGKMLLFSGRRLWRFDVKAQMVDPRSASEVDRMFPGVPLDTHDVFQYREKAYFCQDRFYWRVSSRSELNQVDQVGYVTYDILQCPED

Row | IC50 (MMP-2) | IC50 (MMP-9) | IC50 (MMP-13) | Compound
1 | > 10 µM | > 10 µM | 25 nM | CCC(=O)c1cccc2ccc(C#Cc3ccc(N4CCN(S(=O)(=O)N[C@@H](C(=O)O)C(C)C)CC4)cc3)cc12 [III-87, (R)-2-{4-[4-(8-propionylnaphthalen-2-ylethynyl)-phenyl]-piperazine-1-sulfonylamino}-3-methylbutanoic acid]
2 | > 10 µM | > 10 µM | 20 nM | CC(C)[C@@H](NS(=O)(=O)N1CCN(c2ccc(C#Cc3ccnc(C(=O)NCc4ccc(OC(F)(F)F)cc4)c3)cc2)CC1)C(=O)O [III-196, (R)-3-methyl-2-(4-{4-[2-(4-trifluoromethoxybenzylcarbamoyl)-pyridin-4-ylethynyl]-phenyl}-piperazine-1-sulfonylamino)-butanoic acid]
3 | 0.1 to 1 µM | > 10 µM | 1 nM | CC(C)[C@@H](NS(=O)(=O)N1CCN(c2ccc(C#Cc3ccnc(C(=O)NCc4ccc(N5CCCC5=O)cc4)c3)cc2)CC1)C(=O)O [III-37, (R)-3-methyl-2-[4-(4-{2-[4-(2-oxopyrrolidine-1-yl)-benzylcarbamoyl]-pyridin-4-ylethynyl}-phenyl)-piperazine-1-sulfonylamino]-butanoic acid]
4 | 1 to 10 µM | > 10 µM | 9 nM | CCC(=O)c1cccc2ccc(C#Cc3ccc(N4CCN(S(=O)(=O)N[C@H](C)C(=O)O)CC4)cc3)cc12 [III-86, (R)-2-{4-[4-(8-propionylnaphthalen-2-ylethynyl)-phenyl]-piperazine-1-sulfonylamino}-proponic acid]
5 | > 10 µM | > 10 µM | 10 nM | COc1ccc(CNC(=O)c2cc(C#Cc3ccc(N4CCN(S(=O)(=O)N[C@@H](C(=O)O)C(C)C)CC4)cc3)cn(C)c2=O)cc1 [III-172, (R)-2-(4-{4-[5-(4-methoxybenzylcarbamoyl)-1-methyl-6-oxo-1,6-dihydropyridin-3-yllethynyl]-phenyl}-piperazine-1-sulfonylamino)-3-methylbutanoic acid]
6 | > 10 µM | > 10 µM | 19 nM | CC(C)[C@@H](NS(=O)(=O)N1CCN(c2ccc(C#Cc3ccnc(C(=O)NCc4ccc(-n5cccc5)cc4)c3)cc2)CC1)C(=O)O [III-218, (R)-3-methyl-2-(4-{4-[2-(4-pyrrol-1-ylbenzylcarbamoyl)-pyridin-4-ylethynyl]-phenyl}-piperazine-1-sulfonylamino)-butanoic acid]
7 | 1 to 10 µM | > 10 µM | 12 nM | Cc1cccc(CNC(=O)c2cc(C#Cc3ccc(N4CCN(S(=O)(=O)N[C@@H](C(=O)O)C(C)C)CC4)cc3)ccn2)c1 [III-186, (R)-3-methyl-2-(4-{4-[2-(3-methylbenzylcarbamoyl)-pyridin-4-ylethynyl]-phenyl}-piperazine-1-sulfonylamino)-butanoic acid]
8 | 1 to 10 µM | > 10 µM | 14 nM | Cc1cc(CNC(=O)c2cc(C#Cc3ccc(N4CCN(S(=O)(=O)N[C@@H](C(=O)O)C(C)C)CC4)cc3)ccn2)ccc1F [III-184, (R)-2-(4-{4-[2-(4-fluoro-3-methylbenzylcarbamoyl)-pyridin-4-ylethynyl]-phenyl}-piperazine-1-sulfonylamino)-3-methylbutanoic acid]
9 | 1 to 10 µM | > 10 µM | 5 nM | C[C@@H](NS(=O)(=O)N1CCN(c2ccc(C#Cc3ccc4ccn(Cc5ccccc5)c(=O)c4c3)cc2)CC1)C(=O)O [III-5, (R)-2-{4-[4-(2-benzyl-1-oxo-1,2-dihydroisoquinolin-7-ylethynyl)-phenyl]-piperazine-1-sulfonylamino}-proponic acid]

More lines, now with the values behind:

Row | Compound | IC50 (MMP-2) | IC50 (MMP-9) | IC50 (MMP-13)
10 | C[C@@H](NS(=O)(=O)N1CCN(c2ccc(C#Cc3ccc4c(c3)/C(=N\OCc3ccccc3)CCO4)cc2)CC1)C(=O)O [Compound I-113, (R)-2-[4-(4-{4-[(Z)-benzyloxyimino]-chroman-6-ylethynyl}-phenyl)-piperazine-1-sulfonylamino]-proponic acid] | > 10 µM | > 10 µM | 71 nM
11 | COC(=O)c1ccc(COc2cccc(-c3csc(C#Cc4ccc(N5CCN(S(=O)(=O)N[C@H](C)C(=O)O)CC5)cc4)n3)c2)cc1 [Compound V-22, 4-[3-(2-{4-[4-((R)-1-carboxyethylsulfamoyl)-piperazin-1-yl]-phenylethynyl}-thiazol-4-yl)-phenoxymethyl]-benzoic acid methyl ester] | > 10 µM | > 10 µM | 8 nM
12 | CC(C)[C@@H](NS(=O)(=O)N1CCN(c2ccc(C#Cc3ccc4c(c3)C(=O)N(Cc3cccc(F)c3)C(C)(C)N4)cc2)CC1)C(=O)O [Compound V-74, (R)-2(4-{4-[3-(3-fluorobenzyl)-2,2-dimethyl4-oxo-1,2,3,4-tetrahydroquinazolin-6-ylethynyl]-phenyl}-piperazine-1-sulfonylamino)-3-methylbutanoic acid] | 1 to 10 µM | > 10 µM | 16 nM
13 | CC(C)[C@@H](NS(=O)(=O)N1CCN(c2ccc(C#Cc3ccc4[nH]c(=O)n(CC#N)c(=O)c4c3)cc2)CC1)C(=O)O [Compound V-63, (R)-2-{4-[4-(3-cyanomethyl-2,4-dioxo-1,2,3,4-tetrahydroquinazolin-6-ylethynyl)-phenyl]-piperazine-1-sulfonylamino}-3-methylbutanoic acid] | 1 to 10 µM | > 10 µM | 8 nM
14 | CCC[C@H](NS(=O)(=O)N1CCN(c2ccc(C#Cc3ccnc(C(=O)NCc4ccc(OC)cc4)c3)cc2)CC1)C(=O)O [Compound V-33, (5)-2-(4-{4-[2-(4-methoxybenzylcarbamoyl)-pyridin-4-ylethynyl]-phenyl}-piperazine-1-sulfonylamino)-pentanoic acid] | 1 to 10 µM | > 10 µM | 3 nM
15 | CC[C@H](NS(=O)(=O)N1CCN(c2ccc(C#Cc3ccnc(C(=O)NCc4ccc(Cl)cc4)c3)cc2)CC1)C(=O)O [III-68, (S)-2-(4-{4-[2-(4-chrolobenzylcarbamoyl)-pyridin-4-ylethynyl]-phenyl}-piperazine-1-sulfonylamino)-butanoic acid] | > 10 µM | > 10 µM | 5 nM
16 | COc1ccc(CNC(=O)c2cc(C#Cc3ccc(N4CCN(S(=O)(=O)N[C@H](C(=O)O)C(C)C)CC4)cc3)ccn2)cc1 [Compound V-34, (5)-2-(4-{4-[2-(4-methoxybenzylcarbamoyl)-pyridin-4-ylethynyl]-phenyl}-piperazine-1-sulfonylamino)-3-methylbutanoic acid] | 1 to 10 µM | > 10 µM | 5 nM
17 | CC(C)[C@@H](NS(=O)(=O)N1CCN(c2ccc(C#Cc3nc(-c4cccc(C(=O)NCC#N)c4)cs3)cc2)CC1)C(=O)O [Compound V-40, (R)-2-[4-(4-{4-[3-(cyanomethylcarbamoyl)-phenyl]-thiazol-2-ylethynyl}-phenyl)-piperazine-1-sulfonylamino]-3-methylbutanoic acid] | 1 to 10 µM | 1 to 10 µM | 8 nM
18 | COCCOc1ccc(C#Cc2ccc(N3CCN(S(=O)(=O)N[C@@H](C(=O)O)C(C)C)CC3)cc2)cc1-c1ncc(CC(=O)NCc2ccccc2)o1 [Compound V-24, (R)-2-(4-{4-[3-[5-(benzylearbamoylmethyl)-oxazol-2-yl]-4-(2-methoxyethoxy)-phenylethynyl]-phenyl}-piperazine-1-sulfonylamino)-3-methylbutanoic acid] | > 10 µM | > 10 µM | 23 nM
